≈ marks a conversion by molar mass, not a printed value.
Legend:
in vitro = test: in vitro; parameters: WST-8 cell viability assay in HepG2 cells; details: human, hepg2 cells; read-out: IC50
Description: Cells were regularly passed to maintain exponential growth. HepG2 cells were sowed by 1.0 × 10^4 cells for each well in 96-well plate and cultured at 37 °C under 5% CO2 in air for 24 h. The cells were treated with a solution of test compounds in DMSO at various concentration and incubated at 37 °C under 5% CO2 in air for 24 h. After that, the WST-8 (Dojindo) cell proliferation assay was used. Cell viability was indicated as a percentage of the negative control (cells treated with DMSO only) and that value was fixed at 100%.

Enterococcus faecalis 22 = tested on: T1, Enterococcus faecalis 22; test: microbe, parasite or virus in culture; parameters: CLSI broth microdilution MIC in MHB-II; details: Enterococcus faecalis, 22, 18 h, read-out: MIC
T1 construct: 22
Description: (§1) MICs were determined by a microdilution broth method as recommended by the CLSI with MHB-II. For MICs of stable analogues, a 2-fold dilution of each compound was prepared in DMSO at 100-fold of the final concentration. The strains were inoculated with 5 × 10^5 cfu/mL in 96-well plates (each 100 μL/well), and 1 μL of DMSO solutions of the samples were added (contained less than 1% DMSO). The plates were incubated at 37 °C for 18 h and then MICs were determined. MICs of stable analogues in Table 1 were the highest value in three trials. MICs in Supplementary Table 1 were determined in one trial.

Enterococcus faecalis 23 = tested on: T2, Enterococcus faecalis 23; test: microbe, parasite or virus in culture; parameters: CLSI broth microdilution MIC in MHB-II; details: Enterococcus faecalis, 23, 18 h, read-out: MIC
T2 construct: 23
Description: as §1

Enterococcus faecalis 24 = tested on: T3, Enterococcus faecalis 24; test: microbe, parasite or virus in culture; parameters: CLSI broth microdilution MIC in MHB-II; details: Enterococcus faecalis, 24, 18 h, read-out: MIC
T3 construct: 24
Description: as §1

Enterococcus faecium 11 = tested on: T4, Enterococcus faecium 11; test: microbe, parasite or virus in culture; parameters: CLSI broth microdilution MIC in MHB-II; details: Enterococcus faecium, 11, 18 h, read-out: MIC
T4 construct: 11
Description: as §1

Enterococcus faecium 2 = test: microbe, parasite or virus in culture; parameters: CLSI broth microdilution MIC in MHB-II; details: Enterococcus faecium, 2, 18 h, read-out: MIC
Description: as §1

Enterococcus faecium 3 = test: microbe, parasite or virus in culture; parameters: CLSI broth microdilution MIC in MHB-II; details: Enterococcus faecium, 3, 18 h, read-out: MIC
Description: as §1

Enterococcus faecium 4 = test: microbe, parasite or virus in culture; parameters: CLSI broth microdilution MIC in MHB-II; details: Enterococcus faecium, 4, 18 h, read-out: MIC
Description: as §1

Enterococcus faecium 5 = test: microbe, parasite or virus in culture; parameters: CLSI broth microdilution MIC in MHB-II; details: Enterococcus faecium, 5, 18 h, read-out: MIC
Description: as §1

[1] = tested on: T5, Staphylococcus aureus #1958; test: microbe, parasite or virus in culture; parameters: CLSI broth microdilution MIC in MHB-II; details: Staphylococcus aureus, 18 h, read-out: MIC
T5 construct: #1958
Description: as §1

[2] = tested on: T6, Staphylococcus aureus #2071; test: microbe, parasite or virus in culture; parameters: CLSI broth microdilution MIC in MHB-II; details: Staphylococcus aureus, 18 h, read-out: MIC
T6 construct: #2071
Description: as §1

[3] = tested on: T7, Staphylococcus aureus #2310; test: microbe, parasite or virus in culture; parameters: CLSI broth microdilution MIC in MHB-II; details: Staphylococcus aureus, 18 h, read-out: MIC
T7 construct: #2310
Description: as §1

[4] = tested on: T8, Staphylococcus aureus #2931; test: microbe, parasite or virus in culture; parameters: CLSI broth microdilution MIC in MHB-II; details: Staphylococcus aureus, 18 h, read-out: MIC
T8 construct: #2931
Description: as §1

A. baumannii ATCC 19606 = tested on: T9, A. baumannii ATCC 19606; test: microbe, parasite or virus in culture; details: Acinetobacter baumannii, ATCC19606
T9 construct: ATCC 19606
Description: (§2) MICs were determined by a microdilution broth method as recommended by the CLSI with MHB-II. For MICs of stable analogues, a 2-fold dilution of each compound was prepared in DMSO at 100-fold of the final concentration. The strains were inoculated with 5 × 10^5 cfu/mL in 96-well plates (each 100 μL/well), and 1 μL of DMSO solutions of the samples were added (contained less than 1% DMSO). The plates were incubated at 37 °C for 18 h and then MICs were determined. MICs of stable analogues in Table 1 were the highest value in three trials. MICs in Supplementary Table 1 were determined in one trial.  Fig. 2 Results of biological evaluations of hydrazone library. a General structures of hydrazine fragment moiety are shown. Each hydrazine class are represented by different colours (green; BZ, cyan; PA, grey; AC, yellow; AA, orange; LA). b–h MraY inhibitory activity and antibacterial activity of the hydrazone library. The bar graphs show the relative enzyme activity with DMSO as 100% when the compound is treated at given concentration (b,c; TUN at 100 nM, d,e; MRY at 10 nM, f.g; MRD at 100 nM, h; CAP at 1000 nM. n = 1), with the lower bars indicating higher inhibitory activity. The colour of the bars corresponds to Fig. 2a. […] Data of control compounds (van: vancomycin, col: colistin) are shown left column in each panel. E. faecium ATCC 35667, S. aureus ATCC 29213, P. aeruginosa ATCC 27853, K. pneumoniae ATCC 13883, E. cloacae ATCC 13047, A. baumannii ATCC 19606, E. coli ATCC 25922.

E. cloacae ATCC 13047 = tested on: T10, E. cloacae ATCC 13047; test: microbe, parasite or virus in culture; details: Enterobacter cloacae, ATCC13047
T10 construct: ATCC 13047
Description: as §2

E. coli ATCC 25922 = tested on: T11, E. coli ATCC 25922; test: microbe, parasite or virus in culture; details: Escherichia coli, ATCC25922
T11 construct: ATCC 25922
Description: as §2

E. faecium ATCC 35667 = tested on: T12, E. faecium ATCC 35667; test: microbe, parasite or virus in culture; details: Enterococcus faecium, ATCC35667
T12 construct: ATCC 35667
Description: as §2

S. aureus ATCC 29213 = tested on: T13, S. aureus ATCC 29213; test: microbe, parasite or virus in culture; details: Staphylococcus aureus, ATCC29213
T13 construct: ATCC 29213
Description: as §2

Structure (SMILES)	CC50 at 24 h (in vitro) [µM]	MIC (Enterococcus faecalis 22) [µg/mL]	MIC (Enterococcus faecalis 23) [µg/mL]	MIC (Enterococcus faecalis 24) [µg/mL]	MIC (Enterococcus faecium 11) [µg/mL]	MIC (Enterococcus faecium 2) [µg/mL]	MIC (Enterococcus faecium 3) [µg/mL]	MIC (Enterococcus faecium 4) [µg/mL]	MIC (Enterococcus faecium 5) [µg/mL]	MIC [1] [µg/mL]	MIC [2] [µg/mL]	MIC [3] [µg/mL]	MIC [4] [µg/mL]	MIC (A. baumannii ATCC 19606) [µM]	MIC (E. cloacae ATCC 13047) [µM]	MIC (E. coli ATCC 25922) [µM]	MIC (E. faecium ATCC 35667) [µM]	MIC (S. aureus ATCC 29213) [µM]
CCCCCCCCCCCCCCCC(=O)N[C@@H](CCCCN)C(=O)NCc1cccc(CN[C@H](C(=O)O)[C@H](O[C@@H]2O[C@H](CN)[C@@H](O)[C@H]2O)[C@H]2O[C@@H](n3ccc(=O)[nH]c3=O)[C@H](O)[C@@H]2O)c1 [compound 2, analogue 2]	16	0.13 (≈ 0.139 µM)	0.25 (≈ 0.268 µM)	0.25 (≈ 0.268 µM)	1 (≈ 1.07 µM)	1 (≈ 1.07 µM)	1 (≈ 1.07 µM)	0.5 (≈ 0.535 µM)	1 (≈ 1.07 µM)	1 (≈ 1.07 µM)	1 (≈ 1.07 µM)	2 (≈ 2.14 µM)	0.5 (≈ 0.535 µM)					
CCCCCCCCCCCCCCCC(=O)N[C@@H](CCCNC(=N)N)C(=O)Nc1cccc(CN[C@H](C(=O)O)[C@H](O[C@@H]2O[C@H](CN)[C@@H](O)[C@H]2O)[C@H]2O[C@@H](n3ccc(=O)[nH]c3=O)[C@H](O)[C@@H]2O)c1 [compound 8, analogue 8]	23	1 (≈ 1.05 µM)	0.25 (≈ 0.264 µM)	1 (≈ 1.05 µM)	2 (≈ 2.11 µM)	2 (≈ 2.11 µM)	2 (≈ 2.11 µM)	1 (≈ 1.05 µM)	1 (≈ 1.05 µM)	2 (≈ 2.11 µM)	64 (≈ 67.5 µM)	2 (≈ 2.11 µM)	1 (≈ 1.05 µM)					
CN[C@H](CC(C)C)C(=O)N[C@H]1C(=O)N[C@@H](CC(N)=O)C(=O)N[C@H]2C(=O)N[C@H]3C(=O)N[C@H](C(=O)N[C@H](C(=O)O)c4cc(O)cc(O)c4-c4cc3ccc4O)[C@H](O)c3ccc(c(Cl)c3)Oc3cc2cc(c3O[C@@H]2O[C@H](CO)[C@@H](O)[C@H](O)[C@H]2O[C@H]2C[C@](C)(N)[C@H](O)[C@H](C)O2)Oc2ccc(cc2Cl)[C@H]1O [vancomycin]		1 (≈ 0.69 µM)	1 (≈ 0.69 µM)	1 (≈ 0.69 µM)	1 (≈ 0.69 µM)	1 (≈ 0.69 µM)	1 (≈ 0.69 µM)	1 (≈ 0.69 µM)	1 (≈ 0.69 µM)	1 (≈ 0.69 µM)		2 (≈ 1.38 µM)	1 (≈ 0.69 µM)	50 (≈ 72.5 µg/mL)	> 50	> 50	< 0.5	< 0.5
CC1(C)S[C@@H]2[C@H](NC(=O)[C@H](N)c3ccccc3)C(=O)N2[C@H]1C(=O)O [ampicillin]		1 (≈ 2.86 µM)	1 (≈ 2.86 µM)	0.5 (≈ 1.43 µM)	128 (≈ 366 µM)	128 (≈ 366 µM)	> 128	128 (≈ 366 µM)	128 (≈ 366 µM)	32 (≈ 91.6 µM)	32 (≈ 91.6 µM)	32 (≈ 91.6 µM)	32 (≈ 91.6 µM)	50 (≈ 17.5 µg/mL)	> 50	50 (≈ 17.5 µg/mL)	< 0.5	5 (≈ 1.75 µg/mL)
CCCCCCCCCCCCCCCC(=O)N[C@@H](CCCNC(=N)N)C(=O)NCc1ccc(CN[C@H](C(=O)O)[C@H](O[C@@H]2O[C@H](CN)[C@@H](O)[C@H]2O)[C@H]2O[C@@H](n3ccc(=O)[nH]c3=O)[C@H](O)[C@@H]2O)cc1 [compound 3, analogue 3]	18	0.13 (≈ 0.135 µM)	0.13 (≈ 0.135 µM)	0.13 (≈ 0.135 µM)	1 (≈ 1.04 µM)	1 (≈ 1.04 µM)	1 (≈ 1.04 µM)	0.5 (≈ 0.52 µM)	1 (≈ 1.04 µM)	2 (≈ 2.08 µM)		2 (≈ 2.08 µM)	1 (≈ 1.04 µM)					

Reference: PMC11178787, “Development of a natural product optimization strategy for inhibitors against MraY, a promising antibacterial target” (Nature Communications, 2024)
